Test results published in US11208412B2 (DAEGU-GYEONGBUK MEDICAL INNOVATION FOUNDATION, priority 2017, dated 2021).

Key:
Test in all cases: Kinase selectivity, DiscoverX scanMAX Kinase assay panel (% control)
Assay type in all cases: binding
[1] = target: T1, kinases of the scanMAX Kinase assay panel (Homo sapiens, UniProt Q14289); settings: PYK2; 1 uM
T1 construct: purchased DiscoverX Co. (contract measurement) scanMAX Kinase assay panel
Outline: (§1)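 A 1 uM DMSO solution of compound was applied across the panel kinases, and results were expressed as % control relative to DMSO (100%) and a positive control (0%).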

[2] = target: T2, kinases of the scanMAX Kinase assay panel (Homo sapiens, UniProt Q09013); settings: DMPK; 1 uM
T2 construct: purchased DiscoverX Co. (contract measurement) scanMAX Kinase assay panel
T2 sequence (Q09013 1-629): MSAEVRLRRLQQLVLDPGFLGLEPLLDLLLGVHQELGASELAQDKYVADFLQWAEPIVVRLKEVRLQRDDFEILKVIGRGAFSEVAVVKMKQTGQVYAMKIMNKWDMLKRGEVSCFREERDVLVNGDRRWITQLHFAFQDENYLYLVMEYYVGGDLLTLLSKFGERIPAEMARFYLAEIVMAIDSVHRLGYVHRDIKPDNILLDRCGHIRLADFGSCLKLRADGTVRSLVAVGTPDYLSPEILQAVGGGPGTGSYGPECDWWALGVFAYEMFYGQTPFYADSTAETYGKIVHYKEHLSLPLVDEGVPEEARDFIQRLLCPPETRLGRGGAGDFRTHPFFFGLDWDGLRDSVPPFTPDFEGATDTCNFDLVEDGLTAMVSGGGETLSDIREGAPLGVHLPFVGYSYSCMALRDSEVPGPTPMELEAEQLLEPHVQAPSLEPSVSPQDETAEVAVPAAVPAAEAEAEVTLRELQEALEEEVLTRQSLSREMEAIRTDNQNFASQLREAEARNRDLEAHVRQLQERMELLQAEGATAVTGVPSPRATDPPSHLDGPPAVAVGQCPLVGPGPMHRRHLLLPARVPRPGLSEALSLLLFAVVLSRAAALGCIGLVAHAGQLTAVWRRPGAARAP
Outline: as §1

[3] = target: T3, kinases of the scanMAX Kinase assay panel (Homo sapiens, UniProt Q8TBX8); settings: PIP5K2C; 1 uM
T3 construct: purchased DiscoverX Co. (contract measurement) scanMAX Kinase assay panel
T3 sequence (Q8TBX8 1-421): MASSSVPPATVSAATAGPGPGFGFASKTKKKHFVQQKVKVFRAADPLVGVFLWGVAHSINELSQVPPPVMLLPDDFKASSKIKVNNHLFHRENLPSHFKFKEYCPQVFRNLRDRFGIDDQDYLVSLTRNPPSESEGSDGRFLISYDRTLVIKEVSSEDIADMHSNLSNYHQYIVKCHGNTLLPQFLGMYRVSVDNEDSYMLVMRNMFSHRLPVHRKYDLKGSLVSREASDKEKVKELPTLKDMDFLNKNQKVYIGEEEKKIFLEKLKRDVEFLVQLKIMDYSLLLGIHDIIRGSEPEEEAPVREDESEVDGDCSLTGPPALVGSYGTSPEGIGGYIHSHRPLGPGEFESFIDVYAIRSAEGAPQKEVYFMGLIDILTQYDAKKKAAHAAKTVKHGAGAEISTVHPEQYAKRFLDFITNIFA
Outline: as §1

[4] = target: T4, kinases of the scanMAX Kinase assay panel (Homo sapiens, UniProt O94921); settings: PFTK1; 1 uM
T4 construct: purchased DiscoverX Co. (contract measurement) scanMAX Kinase assay panel
Outline: as §1

[5] = target: T5, kinases of the scanMAX Kinase assay panel (Homo sapiens, UniProt P27361); settings: ERK1; 1 uM
T5 construct: purchased DiscoverX Co. (contract measurement) scanMAX Kinase assay panel
Outline: as §1

[6] = target: T6, kinases of the scanMAX Kinase assay panel (Homo sapiens, UniProt Q9NRH2); settings: kinase SNRK; 1 uM in DMSO
T6 construct: purchased DiscoverX Co. (contract measurement) scanMAX Kinase assay panel
T6 sequence (Q9NRH2 1-765): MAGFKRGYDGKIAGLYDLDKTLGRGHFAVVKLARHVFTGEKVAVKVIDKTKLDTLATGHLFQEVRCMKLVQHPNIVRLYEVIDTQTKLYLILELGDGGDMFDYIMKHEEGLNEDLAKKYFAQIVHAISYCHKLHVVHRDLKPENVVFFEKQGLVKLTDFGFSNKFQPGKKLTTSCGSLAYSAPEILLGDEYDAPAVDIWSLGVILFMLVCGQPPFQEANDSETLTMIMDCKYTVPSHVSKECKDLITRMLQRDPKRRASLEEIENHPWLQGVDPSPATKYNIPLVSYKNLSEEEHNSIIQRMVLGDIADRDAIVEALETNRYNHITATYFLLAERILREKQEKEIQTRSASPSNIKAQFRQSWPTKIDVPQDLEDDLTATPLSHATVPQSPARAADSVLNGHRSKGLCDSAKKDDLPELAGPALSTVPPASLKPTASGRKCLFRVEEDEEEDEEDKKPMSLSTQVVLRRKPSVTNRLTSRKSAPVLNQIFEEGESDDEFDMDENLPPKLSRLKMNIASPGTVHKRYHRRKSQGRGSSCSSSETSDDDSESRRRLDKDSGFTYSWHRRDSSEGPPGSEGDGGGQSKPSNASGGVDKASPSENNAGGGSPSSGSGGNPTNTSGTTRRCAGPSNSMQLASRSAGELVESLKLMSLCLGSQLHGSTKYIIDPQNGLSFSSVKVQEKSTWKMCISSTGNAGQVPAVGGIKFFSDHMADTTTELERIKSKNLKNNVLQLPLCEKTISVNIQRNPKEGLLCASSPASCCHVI
Outline: as §1

[7] = target: T7, kinases of the scanMAX Kinase assay panel (Homo sapiens, UniProt P36896); settings: ACVR1B; 1 uM
T7 construct: purchased DiscoverX Co. (contract measurement) scanMAX Kinase assay panel
T7 sequence (P36896 24-505): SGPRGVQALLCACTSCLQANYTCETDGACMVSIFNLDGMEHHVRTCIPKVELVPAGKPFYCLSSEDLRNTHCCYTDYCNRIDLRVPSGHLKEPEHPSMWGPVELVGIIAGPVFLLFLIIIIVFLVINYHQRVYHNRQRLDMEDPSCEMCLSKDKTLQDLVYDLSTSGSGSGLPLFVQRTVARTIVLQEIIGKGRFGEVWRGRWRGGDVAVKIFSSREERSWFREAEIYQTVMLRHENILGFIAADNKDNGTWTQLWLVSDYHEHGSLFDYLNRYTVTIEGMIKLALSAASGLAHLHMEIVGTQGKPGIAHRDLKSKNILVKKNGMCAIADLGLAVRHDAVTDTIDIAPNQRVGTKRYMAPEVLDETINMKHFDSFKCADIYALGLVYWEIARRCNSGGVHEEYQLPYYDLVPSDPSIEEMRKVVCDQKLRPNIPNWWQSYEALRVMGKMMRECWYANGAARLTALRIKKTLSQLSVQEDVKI
Outline: as §1

T4 sequence (O94921 whole entry): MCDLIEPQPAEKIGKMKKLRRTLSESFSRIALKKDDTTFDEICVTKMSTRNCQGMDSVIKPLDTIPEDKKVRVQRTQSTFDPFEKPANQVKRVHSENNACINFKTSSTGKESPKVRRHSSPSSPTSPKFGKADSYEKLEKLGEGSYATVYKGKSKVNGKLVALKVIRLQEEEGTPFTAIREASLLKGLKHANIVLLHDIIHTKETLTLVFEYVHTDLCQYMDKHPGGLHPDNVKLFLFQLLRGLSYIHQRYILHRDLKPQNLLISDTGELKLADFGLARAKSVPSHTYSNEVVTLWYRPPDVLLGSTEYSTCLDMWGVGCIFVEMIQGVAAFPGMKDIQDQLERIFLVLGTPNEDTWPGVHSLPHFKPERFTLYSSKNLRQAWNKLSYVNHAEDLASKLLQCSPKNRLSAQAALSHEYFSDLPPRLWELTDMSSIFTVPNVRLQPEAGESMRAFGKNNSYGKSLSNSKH
T1 sequence (Q14289 whole entry): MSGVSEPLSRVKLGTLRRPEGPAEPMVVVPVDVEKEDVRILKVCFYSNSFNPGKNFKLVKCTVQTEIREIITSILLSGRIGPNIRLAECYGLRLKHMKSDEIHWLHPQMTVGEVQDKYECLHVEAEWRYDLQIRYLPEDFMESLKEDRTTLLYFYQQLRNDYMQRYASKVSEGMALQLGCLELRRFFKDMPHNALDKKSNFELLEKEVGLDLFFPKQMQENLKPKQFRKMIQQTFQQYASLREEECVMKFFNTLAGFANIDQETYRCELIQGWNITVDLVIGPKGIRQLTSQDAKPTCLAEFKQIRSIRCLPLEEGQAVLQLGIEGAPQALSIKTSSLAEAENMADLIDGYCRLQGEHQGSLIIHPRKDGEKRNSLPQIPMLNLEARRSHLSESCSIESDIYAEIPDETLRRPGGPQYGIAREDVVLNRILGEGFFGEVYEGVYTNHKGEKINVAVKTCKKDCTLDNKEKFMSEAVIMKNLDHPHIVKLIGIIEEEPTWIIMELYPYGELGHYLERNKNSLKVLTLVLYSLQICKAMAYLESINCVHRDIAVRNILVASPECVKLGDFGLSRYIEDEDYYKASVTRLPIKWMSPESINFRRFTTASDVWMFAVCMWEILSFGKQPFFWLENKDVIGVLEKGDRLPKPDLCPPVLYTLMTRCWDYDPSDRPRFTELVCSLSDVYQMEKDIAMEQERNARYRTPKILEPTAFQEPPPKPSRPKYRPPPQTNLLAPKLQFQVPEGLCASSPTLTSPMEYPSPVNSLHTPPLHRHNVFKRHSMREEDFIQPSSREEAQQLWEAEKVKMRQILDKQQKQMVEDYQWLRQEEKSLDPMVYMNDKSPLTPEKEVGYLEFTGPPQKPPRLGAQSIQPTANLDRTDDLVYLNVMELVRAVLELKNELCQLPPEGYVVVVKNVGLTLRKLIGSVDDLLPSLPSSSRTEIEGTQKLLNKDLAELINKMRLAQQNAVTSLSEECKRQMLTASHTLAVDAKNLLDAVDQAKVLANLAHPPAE
T5 sequence (P27361 whole entry): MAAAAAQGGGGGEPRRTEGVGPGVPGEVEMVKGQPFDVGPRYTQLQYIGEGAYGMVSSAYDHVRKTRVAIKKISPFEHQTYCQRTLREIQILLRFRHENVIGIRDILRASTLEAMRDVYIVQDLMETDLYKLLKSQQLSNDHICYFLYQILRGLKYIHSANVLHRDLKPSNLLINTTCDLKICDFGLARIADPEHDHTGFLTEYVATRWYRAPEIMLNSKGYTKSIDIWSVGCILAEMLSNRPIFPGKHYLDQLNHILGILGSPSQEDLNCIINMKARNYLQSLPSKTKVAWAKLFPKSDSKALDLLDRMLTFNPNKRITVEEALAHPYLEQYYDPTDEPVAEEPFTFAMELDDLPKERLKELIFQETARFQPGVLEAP

Compound | remaining binding at 1 µM [1] | remaining binding at 1 µM [2] | remaining binding at 1 µM [3] | remaining binding at 1 µM [4] | remaining binding at 1 µM [5] | remaining binding at 1 µM [6] | remaining binding at 1 µM [7]
CCNc1nc(Nc2ccc(C(=O)N3CCC(N4CCOCC4)CC3)cc2OC)nc2[nH]cc(C(F)(F)F)c12 [Example 104, (4-((4-(ethylamino)-5-(trifluoromethyl)-7H-pyrrolo[2,3-d]pyrimidine-2-yl)amino)-3-methoxyphenyl)(4-morpholinopiperidine-1-yl)methanone] | 2.8% | 100% | 77% | 96% | 100% | 69% | 100%
CC1(Nc2nc(Nc3cnn([C@H]4CCN(C5COC5)C[C@@H]4F)c3Cl)nc3[nH]cc(C#N)c23)CC1 [Example 52, 2-((5-chloro-1-((3S,4S)-3-fluoro-1-(oxetane-3-yl)piperidine-4-yl)-1H-pyrazole-4-yl)amino)((1-methylcyclopropyl)amino)-7H-pyrrolo[2,3-d]pyrimidine-5-carbonitrile] | 1.2% | 3.4% | 0% | 100% | 42% | 7.6% | 92%
CNc1nc(Nc2ccc(C(=O)N3CCOCC3)cc2OC)nc2[nH]cc(C#N)c12 [Example 1, 2-((2-methoxy-4-(morpholine-4-carbonyl)phenyl)amino)-4-(methylamino)-7H-pyrrolo[2,3-d]pyrimidine-5-carbonitrile] | 25% | 100% | 4.5% | 97% | 88% | 64% | 86%
